Measurements: US10287617B2, “Methods for in vitro—in vivo efficacy determination” (COLORADO STATE UNIVERSITY RESEARCH FOUNDATION, priority 2014, dated 2019)
Converted amounts (≈) assume the structure as drawn. “Also recorded” adds a separate entry of the source. Read-outs that look alike come from different tables or passages of the source. Marks after values point to notes of the source that are not given here.

What was measured:
M. tuberculosis H37Rv [1] = assay: MIC / dose response by modified microplate Alamar Blue assay (MABA); format: cell-based, Mycobacterium tuberculosis; conditions: for drug concentration response curve (kill curve) type: FIG. 3
[2] = tested on: non-replicating M. tuberculosis H37Rv; assay: Low oxygen study, non-replicating bacilli; format: cell-based, Mycobacterium tuberculosis; conditions: for Log10 (CFU+/−SD): 96 h post-treatment; for % Growth Reduction: benzimidazoles at 4 μg/mL; for Log10 (CFU) Reduction: vs control
Method: The low oxygen studies were performed similar to those described previously (Lenaerts et al., Antimicrob. Agents Chemother. 2005; 49:2294-2301). Briefly, M. tuberculosis H37Rv were diluted to an O.D. 600 nm of 0.003 in 7H9 media containing Methylene Blue (1.5 μg/mL) and were grown in 16×125 mm Hungate tubes with rubber septa (VWR cat#89167-170). The tubes, with 11 mL of the diluted cultures were incubated at 37° C. under agitation (150 rpm). […] One week after the reduction of methylene blue, approximately 28 days from the start, drug treatment was initiated with the test and control drugs. Prior to treatment, an aliquot was removed and plated for a CFU count to serve as a control. Isoniazid and metronidazole were used in the studies as comparative controls.
Recovery of aliquots for plating and the addition of drugs were conducted through septa using syringes to maintain the low-oxygen conditions. Ninety-six hours post-treatment, 1 mL of the culture was removed from the oxygen depleted cultures, the aliquot was serial diluted and the dilutions were plated. Log10 CFUs were calculated for the different treatments and concentrations. Percentage growth reduction from the controls was calculated and reported.

M. tuberculosis H37Rv [3] = assay: Acute infection model in immune incompetent GKO mice; format: in vivo, mouse; conditions: compound 150 mg/kg IP q.d. 9 days, isoniazid 25 mg/kg q.d.
Method: (§1) Compound efficacy was assessed in two murine models of infection based on the short term model described previously (Lenaerts et al., Antimicrob. Agents Chemother. 2003; 47:783-785). All aerosol infections were performed using a Middlebrook aerosol generation devise (Glas-Col, Terre Haute, Ind.).
(§2) In the first infection model, immune incompetent C57BL/6-Ifngtm1 ts gamma interferon gene disruption (GKO) mice were infected with M. tuberculosis H37Rv. Animals were dosed q.d. IP beginning at day 12 post-infection with 150 mg/kg of compound in 38% ethanol and 10% Solutol (e.g., Solutol HS 15) for 9 consecutive days. In the second animal model, immune competent C57BL/6 mice were infected with M. tuberculosis Erdman (TMCC 107). Animals were dosed b.i.d. IP with 100 mg/kg compound in 25% ethanol and 25% Solutol beginning at day 5 post-in feet ion for 10 consecutive days. Isoniazid was used as a comparative positive control and was delivered q.d. at 25 mg/kg as a positive control.
(§3) In both studies, animals were sacrificed and necropsied, bacterial burden in lungs or spleens were quantified on 7H11 agar containing carbenicillin (Sigma, C1389) and cycloheximide (Sigma, C7698) and upon incubation for three weeks bacterial colony forming units were enumerated. Outliers were identified by the Grubbs' Test and a one-way t-test at a 95% confidence interval was used to compare treatment groups and controls, to calculate p-values, and to produce bar graphs and scatter plots GraphPad Prism Version 5.0d for Mac OS X (GraphPad Software, San Diego Calif., USA www.graphpad.com).

M. tuberculosis Erdman [4] = assay: Dissemination model in immune competent C57BL/6 mice; format: in vivo, mouse; conditions: isoniazid 25 mg/kg q.d.; for reduction of bacterial load in the spleen: compound 100 mg/kg IP b.i.d. 10 days
Method: as §1, §2, §3

M. tuberculosis Erdman [5] = format: in vivo; conditions: for Δ Lungs (difference between means of Test and Control Groups) / Δ Spleen (difference between means of Test and Control Groups) / Log10CFU Lungs / Log10CFU Spleen: 50 mg/kg b.i.d. (Inh q.d.); for Log10CFU Lungs / Log10CFU Spleen: day 15
[6] = tested on: Mycobacteria tuberculosis; assay: MIC and drug response curve type (Tables A and B); format: cell-based, Mycobacterium tuberculosis; conditions: Table A; for Curve: drug response curve type; for MIC: in µg/mL
Method: A drug concentration response curve can be generated by graphing the log10 drug concentrations (μg/mL) against the difference in growth between the drug-treated wells and control wells. See FIG. 3C, and FIG. 5 (entries for SB-P23D8 and SB-P26D9). A NREBA is indicative of bacteriostatic activity above the MIC.
(§4) Further analysis using the methods described herein was performed on the compounds found in Tables A and B (bold font compounds are shown in FIG. 11) resulting in the data found therein.
MIC values were determined for the benzimidazoles using a modified 96-well microplate Alamar Blue (resazurin) assay (MABA) (see Kumar et al., J. Med. Chem. 2011; 54:374-381; Collins and Franzblau, Antimicrob. Agents Chemother. 1997; 41:1004-1009). Dose response curves were generated from the MABA assay for compounds by graphing the log10 drug concentrations against the difference in growth between the drug-treated wells and control wells using GraphPad Prism Version 5.0d for Mac OS X (GraphPad Software, San Diego Calif., USA, www.graphpad.com). For time dose studies, bacterial growth in the presence of compound was monitored by the O.D. 600 nm. […] The values were plotted against time using GraphPad Prism Version 5.0d for Mac OS X (GraphPad Software, San Diego Calif., USA, www.graphpad.com).

M. tuberculosis = assay: Benzimidazoles activity tested in animals (animal models of infection, Table A); format: in vivo, mouse; conditions: Table A
Method: as §4, §1

M. tuberculosis H37Rv [7] = assay: Growth inhibition / time dose curves (OD600 and CFU); format: cell-based, Mycobacterium tuberculosis; conditions: for reduction in number of viable bacteria: 1×MIC
M. tuberculosis TN587 = assay: microbe, parasite or virus in culture; format: cell-based, Mycobacterium tuberculosis
M. tuberculosis NHN382 = assay: microbe, parasite or virus in culture; format: cell-based, Mycobacterium tuberculosis
M. tuberculosis W210 = assay: microbe, parasite or virus in culture; format: cell-based, Mycobacterium tuberculosis
M. tuberculosis NHN20 = assay: microbe, parasite or virus in culture; format: cell-based, Mycobacterium tuberculosis
Mtb FtsZ = Mtb FtsZ (Mycobacterium tuberculosis, UniProt P9WN95); assay: FtsZ polymerization by transmission electron microscopy; format: biochemical; conditions: FtsZ 5 μM, GTP 25 μM, compound 40 μM and 80 μM
Chain of Mtb FtsZ (P9WN95 whole entry, looked up): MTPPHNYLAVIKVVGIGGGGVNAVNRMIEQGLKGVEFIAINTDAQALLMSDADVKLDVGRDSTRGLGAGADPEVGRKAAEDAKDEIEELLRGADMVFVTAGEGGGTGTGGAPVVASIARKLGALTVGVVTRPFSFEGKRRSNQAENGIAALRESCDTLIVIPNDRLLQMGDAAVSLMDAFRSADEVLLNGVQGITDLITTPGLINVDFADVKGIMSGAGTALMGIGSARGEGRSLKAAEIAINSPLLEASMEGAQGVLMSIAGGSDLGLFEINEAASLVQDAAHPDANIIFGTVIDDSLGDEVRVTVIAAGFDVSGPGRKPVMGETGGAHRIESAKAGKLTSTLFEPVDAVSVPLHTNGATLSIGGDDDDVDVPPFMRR

[8] = tested on: M. tuberculosis clinical isolates; assay: microbe, parasite or virus in culture; format: cell-based, Mycobacterium tuberculosis
[9] = Plasma stability in mouse plasma; conditions: percent remaining
Method: Plasma was spiked with the compound in order to obtain a final drug concentration of 100 ng/mL (expressed as non-salified compound). The spiked plasma (dedicated to C1h and C4h) was then incubated at 37° C. for 1 h and 4 h. Plasma samples were analyzed by LC-MS/MS following protein precipitation. The limit of quantification for compounds was 10 ng/mL.
10 μL of the sample was injected to Luna Phenomenex C8 (50 mm×2.0 mm, 3 μm). Solvent A: ammonium acetate (0.15 g)/formic acid (2 mL)/HPLC water up to 1000 mL. Solvent B: ammonium acetate (0.15 g)/formic acid (2 mL)/Methanol (200 mL)/Acetonitrile up to 1000 mL, flow rate of 0.3 mL/min, t=0-6 min. gradient of 10-90% of B. Retention time for SB-P17G-C2 was 1.85 min and for SB-P17G-A20 was 3.3 min. MS/MS condition used for detection: Finnigan TSQ Quantum disco instrument, Excalibur version 2.0 acquisition system, ESI positive ion ionization mode. The mean percent of difference between C1h or C4h and C0 concentrations was calculated. M % D (%)=100×[(C1h or C4h)−C0]/C0
The compounds were considered as stable if the mean percent of difference between C4h and C0 concentrations was less than 20%.

[10] = Oxidative metabolic lability in human liver microsomes; conditions: for Liver Microsome Lability Human: 5 μM, 1 mg/mL microsomal protein, 20 min
Method: (§5) Microsomal fractions were prepared in the Drug Disposition Domain at DSAR Montpellier (371 rue du Pr. J. Blayac, 34184 Montpellier Cedex 04, France). […] The flavin-containing monooxygenases (FMO)-dependent reactions were run in the presence of bovine serum albumin (BSA, 0.1%) for the duration of 0 and 20 min (with or without microsomal proteins and/or cofactors). […] Following protein precipitation with acetonitrile and their removal by centrifugation, supernatant fluids were analyzed by LC/MS-MS.
(§6) Thermo Finnigan TSQ Quantum Ultra instrument, ESI positive ion ionization mode. Each compound is studied in duplicates. Results are expressed in percentage of lability (or total metabolism). Total metabolism=[1−(UC_Peak Area+Cofactor at T20)/(UC_Peak Area Reference at T0)]×100
(§7) The reactions were prepared as described and were run in the presence of bovine scrum albumin (BSA, 0.1%) for the duration of 0 and 20 min (with or without microsomal proteins and/or cofactors). Enzyme activity was stopped, the protein was precipitated and removed by centrifugation. The supernatant fluids were analyzed by LC/MS-MS. […] A Thermo Finnigan TSQ Quantum Ultra instrument, ESI positive ion ionization mode was used for MS/MS. Each compound was studied in duplicates. Results are expressed in percentage of lability (or total metabolism) using the following formula: Total metabolism=[1−(UC_Peak Area+Cofactor at T20)/(UC_Peak Area Reference at T0)]×100 where UC=Unchanged Compound; “Reference” sample was NADPH for liver microsomal preparation.

[11] = Oxidative metabolic lability in mouse liver microsomes; conditions: for Liver Microsome Lability Mouse: 5 μM, 1 mg/mL microsomal protein, 20 min
Method: as §5, §6, §7

Vero cells = assay: Cytotoxicity assay (resazurin, 72 h); format: cell-based; conditions: at 200 μg/mL
Method: The cytotoxicity assay was performed as described previously^16. Briefly compounds were serially diluted in 96 well plates.

M. tuberculosis H37Rv [12] = conditions: previously reported SAR study; cited from earlier work
[13] = tested on: M. tuberculosis clinical isolates; conditions: previously reported; cited from earlier work

SMILES | drug concentration response curve (kill curve) type (M. tuberculosis H37Rv [1]) | Log10 (CFU+/−SD) [2] | % Growth Reduction [2] | Log10 (CFU) Reduction [2] | reduction of bacterial load in spleen (M. tuberculosis H37Rv [3]) | reduction of bacterial load in the lungs (M. tuberculosis H37Rv [3]) | reduction of bacterial load in the spleen (M. tuberculosis Erdman [4]) | Δ Lungs (difference between means of Test and Control Groups) (M. tuberculosis Erdman [5]; IP) | Δ Spleen (difference between means of Test and Control Groups) (M. tuberculosis Erdman [5]; IP) | Log10CFU Lungs (M. tuberculosis Erdman [5]; IP) | Log10CFU Spleen (M. tuberculosis Erdman [5]; IP) | Δ Lungs (difference between means of Test and Control Groups) (M. tuberculosis Erdman [5]; PO) | Δ Spleen (difference between means of Test and Control Groups) (M. tuberculosis Erdman [5]; PO) | Log10CFU Lungs (M. tuberculosis Erdman [5]; PO) | Curve [6] | MIC [6] | Efficacy Lung (M. tuberculosis) | Efficacy Spleen (M. tuberculosis) | Liver Microsome Lability Human [10] | Liver Microsome Lability Mouse [11] | also measured
NNC(=O)c1ccncc1 [Isoniazid, reference compound] | sigmoidal kill curve | 5.15 ± 0.2 | 36% | 0.2 | below the level of detection | 1.8 log10 CFU | below detectable levels | −6.57*** Log10 CFU | −4.96*** Log10 CFU | 0.12 ± 0.16 Log10 CFU | 0 ± 0 Log10 CFU | −6.31*** Log10 CFU | −3.89*** Log10 CFU | 0 ± 0 Log10 CFU | – | – | – | – | – | – | reduction of bacterial load in the lung (M. tuberculosis Erdman [4]): below detectable levels; Log10CFU Spleen (M. tuberculosis Erdman [5]; PO): 0 ± 0 Log10 CFU
CCCCOC(=O)Nc1cc2nc(C3CCCCC3)[nH]c2cc1N(CC)CC [SB-P3G2] | sigmoidal kill curves | 4.80 ± 0.21 | 72% | 0.48 | 0.41±0.36 log10 CFU | 0.71±0.17 log10 CFU | 1.6±0.49 log10 | – | – | – | – | – | – | – | Sigmoid | 1.25 | Yes | Yes | – | – | MIC range (M. tuberculosis H37Rv [1]; H37Rv and Erdman strains): 0.78 to 1.5 µg/mL; concentrations at which bacterial growth was inhibited (M. tuberculosis H37Rv [7]; O.D. 600 nm growth curves, 5 days): greater than 0.62 μg/mL
CN(C)c1cc2nc(C3CCCCC3)[nH]c2cc1NC(=O)c1ccc(OC(F)(F)F)cc1 [SB-P17G-A20] | – | – | – | – | – | – | – | – | – | – | – | – | – | – | Sigmoid | .31 | Yes | Yes | 39% | 45% | MIC (M. tuberculosis H37Rv [1]): 0.16 μg/m; MIC (M. tuberculosis H37Rv [1]; H37Rv): 0.16 µg/mL (≈ 0.358 µM); MIC (M. tuberculosis TN587): 0.16 µg/mL (≈ 0.358 µM); MIC (M. tuberculosis NHN382): 0.16 µg/mL (≈ 0.358 µM); MIC (M. tuberculosis W210): 0.16 µg/mL (≈ 0.358 µM); MIC (M. tuberculosis NHN20): 0.16 µg/mL (≈ 0.358 µM); concentration that steadily reduced bacterial viability (M. tuberculosis H37Rv [7]; CFU plating): 0.08 µg/mL; lowest concentration at which bacterial growth was reduced (M. tuberculosis H37Rv [7]; in some cases): 0.125 ×MIC; effect on FtsZ polymerization and aggregation (TEM) (Mtb FtsZ): fewer, shorter and thinner FtsZ polymers; MIC against different clinical strains [8]: 0.16 µg/mL (≈ 0.358 µM); plasma stability (4 hours) in mice [9]: 75.6%; metabolic stability (liver microsomes) in humans ([10]; percent remaining): 61%; metabolic stability (liver microsomes) in mice ([11]; percent remaining): 55%
CN(C)c1cc2[nH]c(C3CCCCC3)nc2cc1NC(=O)c1ccc(C(F)(F)F)cc1F [SB-P17G-A42] | – | – | – | – | – | – | – | −5.78*** Log10 CFU | −4.96*** Log10 CFU | 0.91 ± 0.64 Log10 CFU | 0 ± 0 Log10 CFU | −5.65*** Log10 CFU | −3.89*** Log10 CFU | 0.66 ± 0.43 Log10 CFU | Sigmoid | .156 | Yes | Yes | 12% | 13% | MIC (M. tuberculosis H37Rv [1]; H37Rv): 0.18 ± 0.1 µg/mL (≈ 0.401 µM); MIC (M. tuberculosis H37Rv [1]; Mycobacterium tuberculosis, H37RV): 0.18 ± 0.1 µg/mL (≈ 0.401 µM); MIC (M. tuberculosis TN587; Mycobacterium tuberculosis): 0.24 ± 0.11 µg/mL (≈ 0.535 µM); MIC (M. tuberculosis NHN382; Mycobacterium tuberculosis): 0.16 µg/mL (≈ 0.357 µM); MIC (M. tuberculosis W210; Mycobacterium tuberculosis): 0.31 µg/mL (≈ 0.691 µM); MIC (M. tuberculosis NHN20; Mycobacterium tuberculosis): 0.16 µg/mL (≈ 0.357 µM); reduction in number of viable bacteria (M. tuberculosis H37Rv [7]; day 2): 2.5 Log10 CFU; reduction in number of viable bacteria (M. tuberculosis H37Rv [7]; day 6): ~4 Log10 CFU; reduction of bacterial load in the lungs (M. tuberculosis Erdman [5]; 50 mg/kg b.i.d. via either IP or PO): 5.6-5.8 Log10 CFU; Log10CFU Spleen (M. tuberculosis Erdman [5]; PO): 0 ± 0 Log10 CFU; reduction of bacterial load in the lungs (M. tuberculosis Erdman [5]; delivered IP, 50 mg/kg b.i.d.): 5.8 Log10 CFU; reduction of bacterial load in the lungs (M. tuberculosis Erdman [5]; delivered PO, 50 mg/kg b.i.d.): 5.6 Log10 CFU; cytotoxicity in Vero cells (Vero cells): not cytotoxic; also recorded: non-toxic; MIC ([8]; Mycobacterium tuberculosis, read-out: minimal inhibitory concentrations): 0.16 to 0.47 µg/mL (≈ 0.357 to 1.05 µM)
CCCCOC(=O)Nc1cc2nc(C3CCCCC3)[nH]c2cc1N(C)C [SB-P17G-C2] | – | – | – | – | – | – | – | – | – | – | – | – | – | – | Sigmoid | .063 | Yes (.3464) | No | 90% | 96% | MIC (M. tuberculosis H37Rv [12]): 0.06 µg/mL (≈ 0.167 µM); MIC against clinical isolates [13]: 0.06 to 0.13 µg/mL
